Data reported in PMC6009873, “Discovery of novel dual inhibitors of receptor tyrosine kinases EGFR and PDGFR-β related to anticancer drug resistance” (Journal of Enzyme Inhibition and Medicinal Chemistry, 2017).
Values belong to the compound of their own block, whether it stands above or below them.

Assays:
EGFR = biological target: T1, EGFR (Homo sapiens, UniProt P00533); test: Receptor tyrosine kinase inhibition, [γ-33P]-ATP competition FlashPlate assay; type: biochemical; conditions: Ki determined from IC50, competitive binding mode, 15 µM ATP, Km ATP 1.3 µM; n.a. = not active
T1 construct: GST; made in house; host or cells: Sf9 insect cells (baculovirus)
T1 sequence (P00533 25-1210): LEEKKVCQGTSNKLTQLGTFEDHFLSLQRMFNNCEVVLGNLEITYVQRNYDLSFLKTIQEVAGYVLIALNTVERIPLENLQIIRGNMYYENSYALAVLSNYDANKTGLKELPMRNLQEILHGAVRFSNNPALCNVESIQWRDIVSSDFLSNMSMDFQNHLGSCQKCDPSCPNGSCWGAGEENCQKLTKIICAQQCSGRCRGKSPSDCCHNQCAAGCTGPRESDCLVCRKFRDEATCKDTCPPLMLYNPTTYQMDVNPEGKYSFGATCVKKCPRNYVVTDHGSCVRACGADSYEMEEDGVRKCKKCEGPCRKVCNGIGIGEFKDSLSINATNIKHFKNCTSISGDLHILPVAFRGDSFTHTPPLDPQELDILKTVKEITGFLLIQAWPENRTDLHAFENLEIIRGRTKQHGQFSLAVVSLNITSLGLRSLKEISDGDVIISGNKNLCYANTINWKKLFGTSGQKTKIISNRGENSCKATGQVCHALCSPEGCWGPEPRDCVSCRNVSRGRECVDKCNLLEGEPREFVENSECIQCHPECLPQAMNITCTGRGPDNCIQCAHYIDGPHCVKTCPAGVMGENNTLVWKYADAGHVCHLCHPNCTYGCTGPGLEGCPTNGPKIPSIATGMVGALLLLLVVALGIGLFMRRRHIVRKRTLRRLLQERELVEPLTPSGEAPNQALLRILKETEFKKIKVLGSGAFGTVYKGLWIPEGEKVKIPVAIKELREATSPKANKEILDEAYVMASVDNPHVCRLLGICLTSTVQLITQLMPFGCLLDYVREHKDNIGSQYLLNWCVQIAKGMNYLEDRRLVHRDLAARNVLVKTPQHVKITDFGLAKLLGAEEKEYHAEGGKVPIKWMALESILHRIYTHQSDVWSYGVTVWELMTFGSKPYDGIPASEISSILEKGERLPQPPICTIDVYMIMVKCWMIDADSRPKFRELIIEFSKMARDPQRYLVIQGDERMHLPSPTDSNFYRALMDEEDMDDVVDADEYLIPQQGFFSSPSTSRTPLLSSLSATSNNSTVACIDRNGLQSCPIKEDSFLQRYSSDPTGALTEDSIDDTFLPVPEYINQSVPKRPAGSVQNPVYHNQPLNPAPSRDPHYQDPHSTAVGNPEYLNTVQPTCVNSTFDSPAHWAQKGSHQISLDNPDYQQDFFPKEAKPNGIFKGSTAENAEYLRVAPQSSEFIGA
Description: (§1) The protein kinases were expressed by means of the baculovirus expression system in Sf9 insect cells as human recombinant GST fusion proteins and purified by affinity chromatography using GSH-agarose. The kinase identity was confirmed by mass spectrometry using LC-ESI-MS/MS technique.
The measuring of protein kinase activity was performed in 96-well FlashPlates^TM from Perkin Elmer in a 50 µL reaction volume. The reaction mixture consisted of 20 µL of assay buffer solution, 5 µL of ATP solution in water, 5 µL of used test compound in a 10% dmso solution and, finally, a premixture of each 10 µL of used substrate and enzyme solutions. […] The final kinase concentration has been 10 ng/50 µL for EGFR and 20 ng/50 µL for PDGFR-β. […] The reaction mixtures were incubated at 30 °C for 60 min. The reaction was stopped with 50 µL of a 2% (v/v) solution of phosphoric acid. Then the plates were aspirated and washed twice with 200 µL of water and a 0.9% solution of sodium chloride. The incorporation of ^33 P was determined with a microplate scintillation counter. Ten different inhibitor concentrations were measured in a range of 3 nM to 100 µM. The residual activity (%) and the IC50 values were finally calculated.

PDGFR-β = biological target: T2, PDGFR-β (Homo sapiens, UniProt P09619); test: as above; type: biochemical; conditions: for Ki / Ki values PDGFR-β: Ki determined from IC50, competitive binding mode, 15 µM ATP, Km ATP 0.989 µM, n.a. = not active
T2 construct: GST; made in house; host or cells: Sf9 insect cells (baculovirus)
T2 sequence (P09619 33-1106): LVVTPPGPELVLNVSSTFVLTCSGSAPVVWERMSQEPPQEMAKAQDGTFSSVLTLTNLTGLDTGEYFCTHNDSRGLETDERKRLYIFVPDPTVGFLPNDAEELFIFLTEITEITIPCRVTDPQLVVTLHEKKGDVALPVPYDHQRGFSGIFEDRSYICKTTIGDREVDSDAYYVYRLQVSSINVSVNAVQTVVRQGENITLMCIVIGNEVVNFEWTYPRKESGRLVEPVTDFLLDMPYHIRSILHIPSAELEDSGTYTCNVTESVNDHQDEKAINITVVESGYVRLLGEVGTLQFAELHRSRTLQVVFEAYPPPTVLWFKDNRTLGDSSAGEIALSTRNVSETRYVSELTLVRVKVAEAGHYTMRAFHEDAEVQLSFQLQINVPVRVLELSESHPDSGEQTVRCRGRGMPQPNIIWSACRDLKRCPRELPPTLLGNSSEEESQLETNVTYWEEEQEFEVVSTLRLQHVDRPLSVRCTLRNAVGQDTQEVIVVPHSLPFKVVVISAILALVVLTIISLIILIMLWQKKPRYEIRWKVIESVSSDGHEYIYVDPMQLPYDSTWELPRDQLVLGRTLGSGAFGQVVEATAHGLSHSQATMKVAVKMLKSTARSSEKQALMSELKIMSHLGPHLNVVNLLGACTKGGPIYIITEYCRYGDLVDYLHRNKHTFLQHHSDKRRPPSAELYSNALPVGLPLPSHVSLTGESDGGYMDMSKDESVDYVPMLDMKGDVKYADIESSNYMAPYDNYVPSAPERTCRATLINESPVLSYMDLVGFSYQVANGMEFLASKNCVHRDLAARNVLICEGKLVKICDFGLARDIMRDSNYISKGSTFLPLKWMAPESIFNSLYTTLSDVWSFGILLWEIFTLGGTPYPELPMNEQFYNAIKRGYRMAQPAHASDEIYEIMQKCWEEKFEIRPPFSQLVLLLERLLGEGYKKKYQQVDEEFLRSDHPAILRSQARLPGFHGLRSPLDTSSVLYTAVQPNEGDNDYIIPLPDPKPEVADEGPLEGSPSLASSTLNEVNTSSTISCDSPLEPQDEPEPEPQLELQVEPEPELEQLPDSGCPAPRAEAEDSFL
Description: as §1
The measuring of protein kinase activity was performed in 96-well FlashPlates^TM from Perkin Elmer in a 50 µL reaction volume. The reaction mixture consisted of 20 µL of assay buffer solution, 5 µL of ATP solution in water, 5 µL of used test compound in a 10% dmso solution and, finally, a premixture of each 10 µL of used substrate and enzyme solutions. The assay buffer solution contained 70 mM of HEPES-NAOH pH 7.5, each 3 mM of magnesium chloride and manganese(II) chloride, 3 µM of sodium orthovanadate, 1.2 mM of DTT, 50 µg/mL of PEG20000 and finally 15 µM of [γ-^33 P]-ATP making approximately 9 × 10^5 cpm per well. The final kinase concentration has been 10 ng/50 µL for EGFR and 20 ng/50 µL for PDGFR-β. The substrate was Poly(Glu,Tyr)4:1 for EGFR and Poly(Ala, Glu, Lys, Tyr)6:2:5.1 for PDFGR-β, both used in a concentration of 125 ng/50 µL. The reaction mixtures were incubated at 30 °C for 60 min. The reaction was stopped with 50 µL of a 2% (v/v) solution of phosphoric acid. Then the plates were aspirated and washed twice with 200 µL of water and a 0.9% solution of sodium chloride. The incorporation of ^33 P was determined with a microplate scintillation counter. Ten different inhibitor concentrations were measured in a range of 3 nM to 100 µM. The residual activity (%) and the IC50 values were finally calculated. From the IC50 values the affinity constants Ki were determined using the equation: IC50 =1/2 [Etotal]+Ki × (1 + [S]/Km) following a competitive inhibitor binding mode[19] (Table 1). The used Km values for ATP have been measured with 1.3 µM for EGFR and with 0.989 µM for PDGFR-β.

NSCLC cell lines = test: Cellular growth inhibition assay (NCI, SRB staining), span over the cell lines; type: cell-based; conditions: Homo sapiens, span over EKV X, NCI-H23, NCI-H322M, read-out: growth inhibition rates in the NSCLC cell lines
Description: (§2) Cells were inoculated into 96 well microtiter plates in […] at plate densities ranging from 5000 to 40.000 cells per well depending from the individual cell doubling time. Then the cell- containing plates were incubated at 37 °C under an air atmosphere containing 5% of carbon dioxide and with a relative humidity for 24 h. After that time two plates of each cell line were fixed in situ with TCA as control before drug addition. Then the drug containing dmso stock solutions were used and mixed with the cell culture medium containing […] of gentamicin. Aliquots of […] of the respective dilution were added to the preincubated plates reaching a final drug concentration of 10 µM. The plates were incubated again under the preincubation conditions as described for 48 h. Then cells were fixed under addition of 50 ml of a cold 50% solution of TCA reaching a final concentration of 10% TCA. Incubation continued for 60 min at 4 °C. The supernatant was discarded and the plates were washed with water for five times and dried at air. Then a sulforhodamine (SRB) solution (0.4%) in acetic acid (1%) was added to each well and plates were incubated again for 10 min. The unbound dye was removed by washing for five times with an acetic acid solution (1%) and the plates were dried at air. The bound stain was solubilised with a […] solution of trizma base and the absorbance was measured with a plate reader at a wavelength of 515 nm. The growth inhibition measured as lowered net protein increase after SRB staining was determined in relation to the untreated control cells (Table 2).
(§3) In first screening studies carried out with an initial concentration of 10 µM by the National Cancer Institute of Health (NCI) the growth inhibition of respective non-small cell lung cancer (NSCLC) cell lines and of prostate cancer cell lines was determined.

[1] = test system: prostate cancer cell lines; test: as above; type: cell-based; conditions: Homo sapiens; span over PC-3 and DU-145, 10 µM; read-out: growth inhibition rates in the prostate cancer cell lines
Description: as §2, §3

[2] = test system: EKV X non-small cell lung cancer cell line; test: Cellular growth inhibition assay (NCI, SRB staining); type: cell-based; conditions: Homo sapiens, EKVX, 48 h, read-out: Compound growth inhibition
Description: as §2, §3

[3] = test system: PC-3 prostate cancer cell line; test: as above; type: cell-based; conditions: Homo sapiens; PC-3, 10 µM, 48 h; read-out: Compound growth inhibition
Description: as §2, §3

[4] = test system: DU-145 prostate cancer cell line; test: as above; type: cell-based; conditions: Homo sapiens; DU-145, 10 µM, 48 h; read-out: Compound growth inhibition
Description: as §2, §3

[5] = test system: NCI-H322M non-small cell lung cancer cell line; test: as above; type: cell-based; conditions: Homo sapiens, 48 h, read-out: Compound growth inhibition
Description: as §2, §3

[6] = test system: NCI-H23 non-small cell lung cancer cell line; test: as above; type: cell-based; conditions: Homo sapiens; NCI-H23, 10 µM, 48 h; read-out: Compound growth inhibition
Description: as §2, §3

[7] = test system: NCI-H23 non-small cell lung cancer cell line; parameters: method as in PMID 19179890, PMID 16926630; conditions: NCI-H23, reported for comparison; cited from earlier work
[8] = test system: DU-145 prostate cancer cell line; parameters: method as in PMID 19179890, PMID 16926630; conditions: DU-145, reported for comparison; cited from earlier work
[9] = test system: PC-3 prostate cancer cell line; parameters: method as in PMID 19179890, PMID 16926630; conditions: PC-3, reported for comparison; cited from earlier work

SMILES: COc1ccc(COc2ccc(Nc3nc(N)nc4[nH]c5ccc(O)cc5c34)cc2)cc1 [Compound 5i]
inhibition at 10 µM (NSCLC cell lines): 1 to 29%
inhibition at 10 µM [1]: 15 to 25%
inhibition at 10 µM [2]: 29%
inhibition at 10 µM [3]: 25%
inhibition at 10 µM [4]: 15%
inhibition at 10 µM [5]: 1%
inhibition at 10 µM [6]: 9%
Ki (EGFR): 413 ± 111 nM
Ki (PDGFR-β): 72 ± 15 nM

SMILES: COc1ccc(COc2ccc(Nc3nc(N)nc4[nH]c5ccc(O)cc5c34)cc2Cl)cc1 [Compound 5l, 2-Amino-4-((3-chloro-4-((4-methoxybenzyl)oxy)phenyl)amino)-9H-pyrimido[4,5-b]indol-6-ol]
Ki (EGFR): 103 ± 37 nM
Ki (PDGFR-β): 213 ± 35 nM

SMILES: COc1cccc(COc2ccc(Nc3nc(N)nc4[nH]c5ccc(O)cc5c34)cc2)c1 [Compound 5j]
Ki (EGFR): 132 ± 99 nM
Ki (PDGFR-β): 209 ± 15 nM

SMILES: Oc1ccc2[nH]c3ncnc(Nc4ccc(OCc5cccc(F)c5)cc4)c3c2c1 [Compound 5m]
Ki (EGFR): 189 ± 27 nM
Ki (PDGFR-β): 3660 ± 210 nM
decrease in the PDGFR-β affinity by a factor (PDGFR-β; compared to the 2-amino compound 5k): fifty

SMILES: Nc1nc(Nc2ccc(OCc3cccc(F)c3)cc2)c2c(n1)[nH]c1ccc(O)cc12 [Compound 5k]
inhibition at 10 µM [2]: 90%
inhibition at 10 µM [3]: 95%
inhibition at 10 µM [4]: 90%
inhibition at 10 µM [5]: 96%
inhibition at 10 µM [6]: 93%
Ki (EGFR): 170 ± 85 nM
Ki (PDGFR-β): 81 ± 10 nM

SMILES: CC(C)Oc1ccc(Nc2nc(N)nc3[nH]c4ccc(O)cc4c23)cc1 [Compound 5e, 2-Amino-4-((4-isopropoxyphenyl)amino)-9H-pyrimido[4,5-b]indol-6-ol]
Ki (EGFR): 574 ± 110 nM
Ki (PDGFR-β): 1940 ± 218 nM

SMILES: C#Cc1cccc(Nc2ncnc3cc(OCCOC)c(OCCOC)cc23)c1 [erlotinib]
growth inhibition rate [7]: 20%
growth inhibition rate [8]: 45%
growth inhibition rate [9]: 40%

Second part, led by results:

Ki (EGFR): 149 ± 66 nM
Ki (PDGFR-β): 3530 ± 200 nM
SMILES: C#Cc1cccc(Nc2nc(N)nc3[nH]c4ccc(O)cc4c23)c1 [Compound 5c, 2-Amino-4-((3-ethinylphenyl)amino)-9H-pyrimido[4,5-b]indol-6-ol]

Ki values EGFR (EGFR): lost
Ki (PDGFR-β): 2750 ± 184 nM
SMILES: CC(C)Oc1cccc(Nc2nc(N)nc3[nH]c4ccc(O)cc4c23)c1 [Compound 5b, 2-Amino-4-((3-isopropoxyphenyl)amino)-9H-pyrimido[4,5-b]indol-6-ol]

Ki (EGFR): 475 ± 143 nM
Ki (PDGFR-β): 3230 ± 195 nM
SMILES: Nc1nc(Nc2ccc(Br)cc2)c2c(n1)[nH]c1ccc(O)cc12 [Compound 5h, 2-Amino-4-((4-bromophenyl)amino)-9H-pyrimido[4,5-b]indol-6-ol]

Ki (EGFR): 935 ± 84 nM
Ki (PDGFR-β): 1910 ± 150 nM
SMILES: CCOc1ccc(Nc2nc(N)nc3[nH]c4ccc(O)cc4c23)cc1 [Compound 5d, 2-Amino-4-((4-ethoxyphenyl)amino)-9H-pyrimido[4,5-b]indol-6-ol]

Ki (EGFR): 421 ± 66 nM
Ki values PDGFR-β (PDGFR-β): not active
SMILES: C#Cc1ccc(Nc2nc(N)nc3[nH]c4ccc(O)cc4c23)cc1 [Compound 5f, 2-Amino-4-((4-ethinylphenyl)amino)-9H-pyrimido[4,5-b]indol-6-ol]

Ki (EGFR): 686 ± 82 nM
Ki values PDGFR-β (PDGFR-β): not active
SMILES: Nc1nc(Nc2ccc(Cl)cc2)c2c(n1)[nH]c1ccc(O)cc12 [Compound 5g, 2-Amino-4-((4-chlorophenyl)amino)-9H-pyrimido[4,5-b]indol-6-ol]

Ki (EGFR): 181 ± 14 nM
Ki values PDGFR-β (PDGFR-β): not active
SMILES: CCOc1cccc(Nc2nc(N)nc3[nH]c4ccc(O)cc4c23)c1 [Compound 5a, 2-Amino-4-((3-ethoxyphenyl)amino)-9H-pyrimido[4,5-b]indol-6-ol]
inhibition at 10 µM (NSCLC cell lines): 32 to 71%
inhibition at 10 µM [2]: 71%
inhibition at 10 µM [3]: 25%
inhibition at 10 µM [4]: 51%
inhibition at 10 µM [5]: 35%
inhibition at 10 µM [6]: 32%
